According to ChEMBL document CHEMBL1201862, “PubChem BioAssay data set” (2004):
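Tested at 5 concentrations; 48 h exposure; 96-well plates; endpoints linearly interpolated, else capped at highest concentration. The concentration for 50% growth inhibition is given as GI50.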 Active and inactive are the calls of the source. Rule as the data show it: active = GI50 up to about 1.1 µM and inactive = higher.

Experiments:
Experiment in all cases: growth of human tumour cells (NCI), 48 h
[1] = test system: MDA-MB-435
[2] = test system: HL-60
[3] = test system: UACC-257
[4] = test system: SF-295
[5] = test system: SN12C
[6] = test system: MDA-N
[7] = test system: SF-268
[8] = test system: IGROV-1
[9] = test system: SK-MEL-5
[10] = test system: OVCAR-4
[11] = test system: NCI-H226
[12] = test system: ACHN
[13] = test system: 786-0
[14] = test system: KM12
[15] = test system: UO-31
[16] = test system: HOP-92
[17] = test system: SR
[18] = test system: HOP-62
[19] = test system: PC-3
[20] = test system: MOLT-4
[21] = test system: CAKI-1
[22] = test system: SK-OV-3
[23] = test system: A498
[24] = test system: OVCAR-8
[25] = test system: NCI-H522
[26] = test system: HCT-116
[27] = test system: Hs-578T
[28] = test system: RPMI-8226
[29] = test system: SK-MEL-2
[30] = test system: NCI-H460
[31] = test system: HCC 2998
[32] = test system: T47D
[33] = test system: OVCAR-5
[34] = test system: SF-539
[35] = test system: K562
[36] = test system: CCRF-CEM
[37] = test system: U-251
[38] = test system: SNB-19
[39] = test system: UACC-62
[40] = test system: A549
[41] = test system: NCI/ADR-RES
[42] = test system: DU-145
[43] = test system: BT-549
[44] = test system: NCI-H23
[45] = test system: EKVX
[46] = test system: SW-620
[47] = test system: HT-29
[48] = test system: LOX IMVI
[49] = test system: HCT-15
[50] = test system: MCF7
[51] = test system: TK-10
[52] = test system: COLO 205
[53] = test system: OVCAR-3
[54] = test system: MDA-MB-231
[55] = test system: RXF 393
[56] = test system: M14
[57] = test system: SK-MEL-28
[58] = test system: Malme-3M
[59] = test system: SNB-75

With COc1cc2c(C)cc(O)cc2c2cc(O)c(C)cc12 the GI50 [1] was 9.75 µM (inactive), the GI50 [2] was 2.96 µM (inactive) and the GI50 [3] was 12.5 µM (inactive). For the same compound, the GI50 [4] was 12.9 µM (inactive), the GI50 [5] was 9.84 µM (inactive) and the GI50 [6] was 10.2 µM (inactive). For the same compound, the GI50 [7] was 13.7 µM (inactive), the GI50 [8] was 14.1 µM (inactive) and the GI50 [9] was 10.5 µM (inactive). For the same compound, the GI50 [10] was 11.3 µM (inactive), the GI50 [11] was 13.5 µM (inactive) and the GI50 [12] was 12.4 µM (inactive). The GI50 [13] was 8.43 µM (inactive), the GI50 [14] was 5.24 µM (inactive) and the GI50 [15] was 9.66 µM (inactive). For the same compound, the GI50 [16] was 12 µM (inactive), the GI50 [17] was 1.53 µM (inactive) and the GI50 [18] was 5.57 µM (inactive). The GI50 [19] was 9.57 µM (inactive), the GI50 [20] was 5.83 µM (inactive) and the GI50 [21] was 11.7 µM (inactive). For the same compound, the GI50 [22] was 12.9 µM (inactive), the GI50 [23] was 11.2 µM (inactive) and the GI50 [24] was 14.4 µM (inactive). For the same compound, the GI50 [25] was 13.7 µM (inactive), the GI50 [26] was 10.7 µM (inactive) and the GI50 [27] was 19.1 µM (inactive). For the same compound, the GI50 [28] was 1.91 µM (inactive), the GI50 [29] was 14.8 µM (inactive) and the GI50 [30] was 2.56 µM (inactive). The GI50 [31] was 13.5 µM (inactive), the GI50 [32] was 10.1 µM (inactive) and the GI50 [33] was 13.7 µM (inactive). For the same compound, the GI50 [34] was 9.14 µM (inactive), the GI50 [35] was 2.48 µM (inactive) and the GI50 [36] was 2.78 µM (inactive). The GI50 [37] was 11.2 µM (inactive), the GI50 [38] was 11.5 µM (inactive) and the GI50 [39] was 12 µM (inactive). The GI50 [40] was 12.9 µM (inactive), the GI50 [41] was 13.5 µM (inactive) and the GI50 [42] was 10.9 µM (inactive). For the same compound, the GI50 [43] was 12.7 µM (inactive), the GI50 [44] was 11.5 µM (inactive) and the GI50 [45] was 11.7 µM (inactive). The GI50 [46] was 10.2 µM (inactive), the GI50 [47] was 14.7 µM (inactive) and the GI50 [48] was 2.23 µM (inactive). For the same compound, the GI50 [49] was 8.55 µM, the GI50 [50] was 10.4 µM (inactive) and the GI50 [51] was 13.3 µM (inactive). For the same compound, the GI50 [52] was 9.91 µM (inactive), the GI50 [53] was 12 µM (inactive) and the GI50 [54] was 9.66 µM (inactive). For the same compound, the GI50 [55] was 12.4 µM (inactive) and the GI50 [56] was 1.94 µM (inactive).

For O=C(N/N=C/c1ccccc1)c1cccc2nc3ccccc3nc12, the GI50 [57] was > 100 µM (inactive), the GI50 [1] was 65 µM (inactive) and the GI50 [2] was > 100 µM (inactive). The GI50 [3] was > 100 µM (inactive), the GI50 [4] was 17.1 µM (inactive) and the GI50 [5] was > 87.9 µM (inactive). The GI50 [6] was 54.2 µM (inactive), the GI50 [7] was > 80.2 µM (inactive) and the GI50 [8] was 63.5 µM (inactive). For the same compound, the GI50 [58] was > 100 µM (inactive), the GI50 [9] was 3.19 µM (inactive) and the GI50 [10] was > 100 µM (inactive). The GI50 [11] was 38.7 µM (inactive), the GI50 [12] was > 100 µM (inactive) and the GI50 [13] was > 100 µM (inactive). The GI50 [14] was 54 µM (inactive), the GI50 [15] was > 100 µM (inactive) and the GI50 [16] was > 69.2 µM (inactive). The GI50 [17] was > 100 µM (inactive), the GI50 [18] was 4.15 µM (inactive) and the GI50 [19] was > 100 µM (inactive). The GI50 [20] was > 100 µM (inactive), the GI50 [21] was > 100 µM (inactive) and the GI50 [22] was > 88.3 µM (inactive). For the same compound, the GI50 [23] was 77.4 µM (inactive), the GI50 [24] was > 85.7 µM (inactive) and the GI50 [25] was 44.8 µM (inactive). For the same compound, the GI50 [26] was > 100 µM (inactive), the GI50 [27] was 18.7 µM (inactive) and the GI50 [28] was > 100 µM (inactive). For the same compound, the GI50 [29] was > 100 µM (inactive), the GI50 [30] was 3.5 µM (inactive) and the GI50 [32] was > 100 µM (inactive). The GI50 [33] was > 100 µM (inactive), the GI50 [59] was > 100 µM (inactive) and the GI50 [34] was > 100 µM (inactive). For the same compound, the GI50 [35] was > 100 µM (inactive), the GI50 [36] was > 74.8 µM (inactive) and the GI50 [37] was > 100 µM (inactive). For the same compound, the GI50 [38] was > 73.1 µM (inactive), the GI50 [39] was > 100 µM (inactive) and the GI50 [40] was 3.81 µM (inactive). The GI50 [41] was > 100 µM (inactive), the GI50 [42] was 17.9 µM (inactive) and the GI50 [43] was > 58.2 µM (inactive). For the same compound, the GI50 [44] was 6.07 µM (inactive), the GI50 [45] was > 39.3 µM (inactive) and the GI50 [46] was > 100 µM (inactive). For the same compound, the GI50 [47] was 46.3 µM (inactive), the GI50 [48] was 29.9 µM (inactive) and the GI50 [49] was 9.66 µM. The GI50 [50] was > 45 µM (inactive), the GI50 [51] was > 100 µM (inactive) and the GI50 [52] was 4.08 µM (inactive). The GI50 [53] was > 100 µM (inactive), the GI50 [54] was > 100 µM (inactive) and the GI50 [55] was > 100 µM (inactive). For the same compound, the GI50 [56] was 35 µM (inactive).
